Experimental data as given in ChEMBL document CHEMBL4339221, “Investigating the Anticancer Activity of Isatin/Dihydropyrazole Hybrids” (ACS Med Chem Lett, 2019).

Tests used:
A549 [1] = test: Antiproliferative activity against human A549 cells assessed as cell growth at 10 uM incubated for 72 hrs by MTT assay relative to untreated control; format: functional; conditions: A549, 72 h, read-out: Activity
[2] = Antiproliferative activity against human IGR-39 cells assessed as cell growth at 10 uM incubated for 72 hrs by MTT assay relative to untreated control; format: functional; conditions: IGR-39, 72 h, read-out: Activity
U-87 MG [3] = test: Antiproliferative activity against human U87 cells assessed as cell growth at 10 uM incubated for 72 hrs by MTT assay relative to untreated control; format: functional, U-87MG ATCC; conditions: read-out: Activity
MDA-MB-231 = test: Antiproliferative activity against human MDA-MB-231 cells assessed as cell growth at 10 uM incubated for 72 hrs by MTT assay relative to untreated control; format: functional; conditions: MDA-MB-231, 72 h, read-out: Activity
MCF7 [4] = test: Antiproliferative activity against human MCF7 cells assessed as cell growth at 10 uM incubated for 72 hrs by MTT assay relative to untreated control; format: functional; conditions: MCF7, 72 h, read-out: Activity
BT-474 [5] = test: Antiproliferative activity against human BT474 cells assessed as cell growth at 10 uM incubated for 72 hrs by MTT assay relative to untreated control; format: functional; conditions: BT-474, 72 h, read-out: Activity
BXPC-3 [6] = test: Antiproliferative activity against human BxPC3 cells assessed as cell growth at 10 uM incubated for 72 hrs by MTT assay relative to untreated control; format: functional; conditions: BXPC-3, 72 h, read-out: Activity
SK-OV-3 [7] = test: Antiproliferative activity against human SKOV3 cells assessed as cell growth at 10 uM incubated for 72 hrs by MTT assay relative to untreated control; format: functional; conditions: SK-OV-3, 72 h, read-out: Activity
NCI-H1299 [8] = test: Antiproliferative activity against human NCI-H1299 cells assessed as cell growth at 10 uM incubated for 72 hrs by MTT assay relative to untreated control; format: functional; conditions: NCI-H1299, 72 h, read-out: Activity
[9] = Antiproliferative activity against human NHFB cells assessed as cell growth at 10 uM incubated for 72 hrs by MTT assay relative to untreated control; format: cell-based; conditions: read-out: Activity
A549 [10] = test: Antiproliferative activity against human A549 cells assessed as reduction in cell growth incubated for 72 hrs by MTT assay; format: functional, cell-based; conditions: A549, 72 h
[11] = Antiproliferative activity against human IGR-39 cells assessed as reduction in cell growth incubated for 72 hrs by MTT assay; format: functional, cell-based; conditions: IGR-39, 72 h
U-87 MG [12] = test: Antiproliferative activity against human U87 cells assessed as reduction in cell growth incubated for 72 hrs by MTT assay; format: functional, cell-based, U-87MG ATCC
MCF7 [13] = test: Antiproliferative activity against human MCF7 cells assessed as reduction in cell growth incubated for 72 hrs by MTT assay; format: functional, cell-based; conditions: MCF7, 72 h
BXPC-3 [14] = test: Antiproliferative activity against human BxPC3 cells assessed as reduction in cell growth incubated for 72 hrs by MTT assay; format: functional, cell-based; conditions: BXPC-3, 72 h
[15] = Antiproliferative activity against human NHFB cells assessed as reduction in cell growth incubated for 72 hrs by MTT assay; format: cell-based
A549 [16] = test: Induction of apoptosis in human A549 cells at 0.5 times antiproliferative EC50 incubated for 72 hrs by Hoechst 33342 and propidium iodide staining based inverted fluorescent microscopy relative to untreated control; format: functional
[17] = Induction of apoptosis in human IGR-39 cells at 0.5 times antiproliferative EC50 incubated for 72 hrs by Hoechst 33342 and propidium iodide staining based inverted fluorescent microscopy relative to untreated control; format: functional
U-87 MG [18] = test: Induction of apoptosis in human U87 cells at 0.5 times antiproliferative EC50 incubated for 72 hrs by Hoechst 33342 and propidium iodide staining based inverted fluorescent microscopy relative to untreated control; format: functional, U-87MG ATCC
A549 [19] = test: Induction of necrosis in human A549 cells at 0.5 times antiproliferative EC50 incubated for 72 hrs by Hoechst 33342 and propidium iodide staining based inverted fluorescent microscopy relative to untreated control; format: functional
[20] = Induction of necrosis in human IGR-39 cells at 0.5 times antiproliferative EC50 incubated for 72 hrs by Hoechst 33342 and propidium iodide staining based inverted fluorescent microscopy relative to untreated control; format: functional
U-87 MG [21] = test: Induction of necrosis in human U87 cells at 0.5 times antiproliferative EC50 incubated for 72 hrs by Hoechst 33342 and propidium iodide staining based inverted fluorescent microscopy relative to untreated control; format: functional, U-87MG ATCC
BT-474 [22] = test: Antiproliferative activity against human BT474 cells assessed as reduction in cell growth incubated for 72 hrs by MTT assay; format: functional, cell-based; conditions: BT-474, 72 h
SK-OV-3 [23] = test: Antiproliferative activity against human SKOV3 cells assessed as reduction in cell growth incubated for 72 hrs by MTT assay; format: functional, cell-based; conditions: SK-OV-3, 72 h
NCI-H1299 [24] = test: Antiproliferative activity against human NCI-H1299 cells assessed as reduction in cell growth incubated for 72 hrs by MTT assay; format: functional, cell-based; conditions: NCI-H1299, 72 h

EC50 (U-87 MG [12]) [nM] | EC50 (MCF7 [13]) [nM] | EC50 (BXPC-3 [14]) [nM] | SMILES | growth at 10 µM (A549 [1]) [%] | growth at 10 µM [2] [%] | growth at 10 µM (U-87 MG [3]) [%] | growth at 10 µM (MDA-MB-231) [%] | growth at 10 µM (MCF7 [4]) [%] | growth at 10 µM (BT-474 [5]) [%] | growth at 10 µM (BXPC-3 [6]) [%] | growth at 10 µM (SK-OV-3 [7]) [%] | growth at 10 µM (NCI-H1299 [8]) [%] | viability at 72 h, 10 µM [9] [%] | EC50 [11] [nM] | further results
– | – | – | COc1ccc(C2CC(c3cccs3)=NN2C2=NC(=O)/C(=C3/C(=O)Nc4c(C)cc(C)cc43)S2)cc1 (configuration not stated) | 104 | 117 | 126 | 111 | 114 | 103 | 72.3 | 79.9 | 120 | 80.3 | – | –
– | – | – | COc1ccc(C2CC(c3cccs3)=NN2C2=NC(=O)/C(=C3/C(=O)Nc4c(Br)cccc43)S2)cc1 (configuration not stated) | 86.1 | 101 | 57 | 73.9 | 126 | 94.3 | 53.7 | 88 | 89.2 | 46.3 | – | –
230 | 310 | 100 | COc1ccc(C2CC(c3ccc4ccccc4c3)=NN2C2=NC(=O)/C(=C3/C(=O)Nc4ccc(C)cc43)S2)cc1 (configuration not stated) | 6.21 | 0.46 | 14.2 | 10.8 | 4.81 | 40.2 | 5.02 | 66.6 | 19.3 | 11.8 | 140 | EC50 (A549 [10]): 180 nM; EC50 [15]: 150 nM; Activity (A549 [16]): 13.5 - 27%; Activity [17]: 13.5 - 27%; Activity (U-87 MG [18]): 13.5 - 27%; Activity (A549 [19]): <1%; Activity [20]: <1%; Activity (U-87 MG [21]): <1%
– | 960 | 2500 | CCN(CC)CCNC(=O)c1c(C)[nH]c(/C=C2\C(=O)Nc3ccc(F)cc32)c1C [SUNITINIB] | – | – | – | – | – | – | – | – | – | – | – | EC50 (BT-474 [22]): 900 nM; EC50 (SK-OV-3 [23]): 1360 nM; EC50 (NCI-H1299 [24]): 1540 nM; EC50 [15]: 300 nM
670 | 270 | 100 | COc1ccc(C2CC(c3ccc4ccccc4c3)=NN2C2=NC(=O)/C(=C3/C(=O)Nc4ccc(OC)cc43)S2)cc1 (configuration not stated) | 3.93 | 1.2 | 1.13 | 9.67 | 3.64 | 49.1 | 5.13 | 41.4 | 9.85 | 13.3 | 500 | EC50 (A549 [10]): 730 nM; EC50 (BT-474 [22]): 240 nM; EC50 (NCI-H1299 [24]): 150 nM; EC50 [15]: 270 nM
– | – | – | COc1ccc(C2CC(c3cccs3)=NN2C2=NC(=O)/C(=C3/C(=O)Nc4ccc(F)cc43)S2)cc1 (configuration not stated) | 63.6 | 28.1 | 14.4 | 81.5 | 112 | 102 | 77.2 | 94.1 | 68.3 | 20 | – | –
– | – | – | COc1ccc(C2CC(c3ccc4ccccc4c3)=NN2C2=NC(=O)/C(=C3/C(=O)Nc4c(F)cccc43)S2)cc1 (configuration not stated) | 86.5 | 109 | 86.2 | 87.3 | 118 | 112 | 73.1 | 67.7 | 60.5 | 89.4 | – | –
– | – | – | COc1ccc(C2CC(c3cccs3)=NN2C2=NC(=O)/C(=C3/C(=O)Nc4ccc(OC)cc43)S2)cc1 (configuration not stated) | 62.5 | 98.6 | 44.9 | 99.3 | 120 | 98.4 | 67.6 | 49.5 | 85.9 | 64.4 | – | –
380 | 70 | 60 | COc1ccc(C2CC(c3ccc4ccccc4c3)=NN2C2=NC(=O)/C(=C3/C(=O)Nc4ccc(Cl)cc43)S2)cc1 (configuration not stated) | 3.84 | 1.3 | 1.59 | 6.87 | 3.81 | 24.2 | 5.62 | 6.69 | 9.76 | 14.4 | 330 | EC50 (A549 [10]): 340 nM; EC50 (BT-474 [22]): 90 nM; EC50 (SK-OV-3 [23]): 60 nM; EC50 (NCI-H1299 [24]): 10 nM; Activity (A549 [16]): 13.5 - 27%; Activity [17]: 13.5 - 27%; Activity (U-87 MG [18]): 13.5 - 27%; Activity (A549 [19]): <1%; Activity [20]: <1%; Activity (U-87 MG [21]): <1%
– | – | – | COc1ccc(C2CC(c3cccs3)=NN2C2=NC(=O)/C(=C3/C(=O)Nc4ccc(C)cc43)S2)cc1 (configuration not stated) | 22.7 | 1.37 | 12.1 | 76.9 | 112 | 95 | 62.4 | 38.4 | 84 | 48.3 | – | –
5760 | – | – | COc1ccc(C2CC(c3cccs3)=NN2C2=NC(=O)/C(=C3/C(=O)Nc4ccc(Cl)cc43)S2)cc1 (configuration not stated) | 22.4 | 0.9 | 4.35 | 80.4 | 112 | 86.8 | 59.6 | 56.6 | 117 | 47.5 | 2970 | –
– | – | – | COc1ccc(C2CC(c3ccc4ccccc4c3)=NN2C2=NC(=O)/C(=C3/C(=O)Nc4c(C)cc(C)cc43)S2)cc1 (configuration not stated) | 43.8 | 63.4 | 64.2 | 73 | 120 | 62.2 | 44.9 | 26.6 | 87.8 | 55.6 | – | –
– | – | – | COc1ccc(C2CC(c3ccc4ccccc4c3)=NN2C2=NC(=O)/C(=C3/C(=O)Nc4c(Br)cccc43)S2)cc1 (configuration not stated) | 94.2 | 98.6 | 96.7 | 68.2 | 102 | 88.2 | 55.3 | 89.9 | 81 | 47.3 | – | –
